Measured values published in US7687643B2, “Process for preparing 3,3-dimethylindolines” (Amgen Inc., priority 2001, dated 2010).

What follows are compounds tested on Human Umbilical Vein Endothelial cells (VEGF-stimulated) (assay: HUVEC proliferation assay, VEGF-stimulated). Conditions: VEGF 50 ng/mL, 72 h, CyQuant, read-out: inhibited VEGF-stimulated HUVEC proliferation at a level.
Format: cell-based
Method: Human Umbilical Vein Endothelial cells are purchased from Clonetics, Inc., as cryopreserved cells harvested from a pool of donors. These cells, at passage 1, are thawed and expanded in EBM-2 complete medium, until passage 2 or 3. The cells are trypsinized, washed in DMEM+10% FBS+antibiotics, and spun at 1000 rpm for 10 min. Prior to centrifugation of the cells, a small amount is collected for a cell count. After centrifugation, the medium is discarded, and the cells are resuspended in the appropriate volume of DMEM+10% FBS+antibiotics to achieve a concentration of 3×10^5 cells/mL. Another cell count is performed to confirm the cell concentration. The cells are diluted to 3×10^4 cells/mL in DMEM+10% FBS+antibiotics, and 100 μL of cells are added to a 96-well plate. The cells are incubated at 37° C. for 22 h.
Prior to the completion of the incubation period, compound dilutions are prepared. Five-point, five-fold serial dilutions are prepared in DMSO, at concentrations 400-fold greater than the final concentrations desired. 2.5 μL of each compound dilution are diluted further in a total of 1 mL DMEM+10% FBS+antibiotics (400× dilution). Medium containing 0.25% DMSO is also prepared for the 0 μM compound sample. At the 22-hour timepoint, the medium is removed from the cells, and 100 μL of each compound dilution is added. The cells are incubated at 37° C. for 2-3 h.
During the compound pre-incubation period, the growth factors are diluted to the appropriate concentrations. Solutions of DMEM+10% FBS+antibiotics, containing either VEGF or bFGF at the following concentrations: 50, 10, 2, 0.4, 0.08, and 0 ng/mL are prepared. For the compound-treated cells, solutions of VEGF at 550 ng/mL or bFGF at 220 ng/mL for 50 ng/mL or 20 ng/mL final concentrations, respectively, are prepared since 10 μL of each will be added to the cells (110 μL final volume). At the appropriate time after adding the compounds, the growth factors are added. VEGF is added to one set of plates, while bFGF is added to another set of plates. For the growth factor control curves, the media on wells B4-G6 of plates 1 and 2 are replaced with media containing VEGF or bFGF at the varying concentrations (50-0 ng/mL). The cells are incubated at 37° C. for an additional 72 h.
At the completion of the 72 h incubation period, the medium is removed, and the cells are washed twice with PBS. After the second wash with PBS, the plates are tapped gently to remove excess PBS, and the cells are placed at −70° C. for at least 30 min. The cells are thawed and analyzed using the CyQuant fluorescent dye (Molecular Probes C-7026), following the manufacturer's recommendations. The plates are read on a Victor/Wallac 1420 workstation at 485 nm/530 nm (excitation/emission). Raw data are collected and analyzed using a 4-parameter fit equation in XLFit. IC50 values are then determined.
`CC(=O)N1CC(C)(C)Oc2ccc(NC(=O)c3cccnc3NCc3ccncc3)cc21` [Example 943, N-(4-Acetyl-2,2-dimethyl-3,4-dihydro-2H-benzo[1,4]oxazin-6-yl)-2-[(pyridin-4-ylmethyl)-amino]-nicotinamide] was tested, and the IC50 was < 50 nM. With `CC1(C)Oc2ccc(NC(=O)c3cccnc3NCc3ccncc3)cc2NC1=O` [Example 944, N-(2,2-Dimethyl-3-oxo-3,4-dihydro-2H-benzo[1,4]oxazin-6-yl)-2-[(pyridin-4-ylmethyl)-amino]-nicotinamide] the IC50 was < 50 nM. `CC1(C)CNC(=O)c2cc(NC(=O)c3cccnc3NCc3ccncc3)ccc21` [Example 946, N-(4,4-Dimethyl-1-oxo-1,2,3,4-tetrahydro-isoquinolin-7-yl)-2-[(pyridin-4-ylmethyl)-amino]-nicotinamide] was tested, and the IC50 was < 50 nM. In the case of `O=C(Nc1ccc(C(F)(F)C(F)(F)F)c(OC[C@H](O)CN2CCCC2)c1)c1cccnc1NCc1ccncc1` [Example 951, (R) N-[3-(2-Hydroxy-3-pyrrolidin-1-yl-propoxy)-4-pentafluoroethyl-phenyl]-2-[(pyridin-4-ylmethyl)-amino]-nicotinamide], the IC50 is reported as < 50 nM. With `O=C(Nc1ccc(C(F)(F)C(F)(F)F)c(OC[C@@H](O)CN2CCCC2)c1)c1cccnc1NCc1ccncc1` [Example 952, (S) N-[3-(2-Hydroxy-3-pyrrolidin-1-yl-propoxy)-4-pentafluoroethyl-phenyl]-2-[(pyridin-4-ylmethyl)-amino]-nicotinamide] the IC50 was < 50 nM. For `CN1CCC(COc2cc(NC(=O)c3cccnc3NCc3ccncc3)ccc2C(F)(F)C(F)(F)F)CC1` [Example 954, N-[3-(1-Methyl-piperidin-4-ylmethoxy)-4-pentafluoroethyl-phenyl]-2-[(pyridin-4-ylmethyl)-amino]-nicotinamide], the IC50 was < 50 nM. `O=C(Nc1ccc(C(F)(F)C(F)(F)F)c(OCCN2CCCCC2)c1)c1cccnc1NCc1ccncc1` [Example 955, N-[4-Pentafluoroethyl-3-(2-piperidin-1-yl-ethoxy)-phenyl]-2-[(pyridin-4-ylmethyl)-amino]-nicotinamide] was tested, and the IC50 was < 50 nM. `O=C(Nc1cc(CCCN2CCCCC2)cc(C(F)(F)F)c1)c1cccnc1NCc1ccncc1` [Example 963, N-[3-(3-Piperidin-1-yl-propyl)-5-trifluoromethyl-phenyl]-2-[(pyridin-4-ylmethyl)-amino]-nicotinamide] was tested, and the IC50 was < 50 nM. For `O=C(Nc1cc(CCCN2CCOCC2)cc(C(F)(F)F)c1)c1cccnc1NCc1ccncc1` [Example 964, N-[3-(3-Morpholin-4-yl-propyl)-5-trifluoromethyl-phenyl]-2-[(pyridin-4-ylmethyl)-amino]-nicotinamide], the IC50 was < 50 nM. `CC1(C)COc2cc(NC(=O)c3cccnc3NCc3ccncc3)ccc21` [Example 973, N-(3,3-Dimethyl-2,3-dihydro-benzofuran-6-yl)-2-[(pyridin-4-ylmethyl)-amino]-nicotinamide] was tested, and the IC50 was < 50 nM. With `O=C(Nc1cc(OCC2CNC2)cc(C(F)(F)F)c1)c1cccnc1NCc1ccncc1` [Example 977, N-[3-(azetidin-3-ylmethoxy)-5-trifluoromethyl-phenyl]-2-[(pyridin-4-ylmethyl)-amino]-nicotinamide] the IC50 was < 50 nM. In the case of `O=C(Nc1cc(O)cc(C(F)(F)F)c1)c1cccnc1NCc1ccncc1` [Example 978, N-(3-Hydroxy-5-trifluoromethyl-phenyl)-2-[(pyridin-4-ylmethyl)-amino]-nicotinamide], the IC50 is reported as < 50 nM. For `O=C(Nc1ccc(C(F)(F)F)c(OCCN2CCCC2)c1)c1cccnc1NCc1ccncc1` [Example 982, 2-[(Pyridin-4-ylmethyl)-amino]-N-[3-(2-pyrrolidin-1-yl-ethoxy)-4-trifluoromethyl-phenyl]-nicotinamide], the IC50 was < 50 nM. For `COC(=O)C(C)(C)c1ccc(NC(=O)c2cccnc2NCc2ccncc2)cc1` [Example 985, 2-Methyl-2-[4-({2-[(pyridin-4-ylmethyl)-amino]-pyridine-3-carbonyl}-amino)-phenyl]-propionic acid methyl ester], the IC50 was < 50 nM. In the case of `CC(=O)N1CC(C)(C)c2ccc(NC(=O)c3cccnc3Nc3ccc4c(c3)OCCO4)cc21` [Example 991, N-(1-Acetyl-3,3-dimethyl-2,3-dihydro-1H-indol-6-yl)-2-(2,3-dihydro-benzo[1,4]dioxin-6-ylamino)-nicotinamide], the IC50 is reported as < 50 nM. In the case of `CC1(C)CNc2cc(NC(=O)c3cccnc3NCc3ccncc3)ccc2O1` [Example 995, N-(2,2-Dimethyl-3,4-dihydro-2H-benzo[1,4]oxazin-6-yl)-2-[(pyridin-4-ylmethyl)-amino]-nicotinamide], the IC50 is reported as < 50 nM. With `COc1cc(CNc2ncccc2C(=O)Nc2ccc3c(c2)NCC3(C)C)ccn1` [Example 1000, N-(3,3-dimethyl-2,3-dihydro-1H-indol-6-yl)-2-[(2-methoxy-pyridin-4-ylmethyl)-amino]-nicotinamide] the IC50 was < 50 nM. For `CC(CNc1cc(CNc2ncccc2C(=O)Nc2ccc3c(c2)NCC3(C)C)ccn1)N1CCOCC1` (stereo not shown) [Example 1008, N-(3,3-dimethyl-2,3-dihydro-1H-indol-6-yl)-2-{[2-(2-morpholin-4-yl-propylamino)-pyridin-4-ylmethyl]-amino}-nicotinamide], the IC50 was < 50 nM. In the case of `O=C(Nc1ccc(C(F)(F)F)c(OCCN2CCCC2)c1)c1cccnc1NCc1ccnc2ccccc12` [Example 1021, N-(3-((2-(1-pyrrolidinyl)ethyl)oxy)-4-(trifluoromethyl)phenyl)-2-((4-quinolinylmethyl)amino)-3-pyridinecarboxamide], the IC50 is reported as < 50 nM. `CC(=O)N1CC(C)(C)c2ccc(NC(=O)c3cccnc3NCc3ccncn3)cc21` [Example 1022, N-(1-Acetyl-3,3-dimethyl-2,3-dihydro-1H-indol-6-yl)-2-((4-pyrimidinylmethyl)amino)-3-pyridinecarboxamide] was tested, and the IC50 was < 50 nM. With `CC1(C)CNc2cc(NC(=O)c3cccnc3NCc3ccnc4ccccc34)ccc21` [Example 1023, N-(3,3-Dimethyl-2,3-dihydro-1H-indol-6-yl)-2-((4-quinolinylmethyl)amino)-3-pyridinecarboxamide] the IC50 was < 50 nM. With `O=C(Nc1ccc(C(F)(F)F)c(OCCN2CCCC2)c1)c1cccnc1NCc1ccncn1` [Example 1024, 2-((4-Pyrimidinylmethyl)amino)-N-(3-((2-(1-pyrrolidinyl)ethyl)oxy)-4-(trifluoromethyl)phenyl)-3-pyridinecarboxamide] the IC50 was < 50 nM. With `CN1CCC[C@H]1COc1cc(NC(=O)c2cccnc2NCc2ccncn2)cc(C(F)(F)F)c1` [Example 1025, N-(3-((((2S)-1-Methyl-2-pyrrolidinyl)methyl)oxy)-5-(trifluoromethyl)phenyl)-2-((4-pyrimidinylmethyl)amino)-3-pyridinecarboxamide] the IC50 was < 50 nM. With `CN1CCC(C(C)(C)c2ccc(NC(=O)c3cccnc3NCc3ccnc4ccccc34)cc2)CC1` [Example 1028, N-(4-(1-Methyl-1-(1-methyl-4-piperidinyl)ethyl)phenyl)-2-((4-quinolinylmethyl)amino)-3-pyridinecarboxamide] the IC50 was < 50 nM. With `CC1(C)CNc2cc(NC(=O)c3cccnc3NCc3ccncn3)ccc21` [Example 1029, N-(3,3-Dimethyl-2,3-dihydro-1H-indol-6-yl)-2-((4-pyrimidinylmethyl)amino)-3-pyridinecarboxamide] the IC50 was < 50 nM.
